According to patent US6737383B1, “Herbicidal oxadiazolidines” (priority 1999, dated 2004):

Columns and labels:
[1] = tested on: Pioneer hybrid P33G26 corn; test: Test H corn injury, herbicide and safener mixtures applied to soil; conditions: in vivo
Experimental: Mixtures of the herbicide and safeners were applied to pots of a soil mixture previously sown with corn. Pioneer hybrid P33G26 corn was sown in pots containing a sterile mix of 60% sassafras soil and 40% Metro Mix 360® growing medium (pH 6.7, O.M. 2%). Test compounds were dissolved in AGWT (a mixture of 0.25% Tween 20 surfactant, 5% water, 5% glycerin and 89.75% acetone) and sprayed on the soil as pots passed under a stationary 8002E nozzle. Treatments were applied at a 33 gal/acre rate of the AGWT carrier. After treatment, the test pots were placed in the greenhouse and watered. There were two replications for each treatment. Each pot contained eight corn seeds. The pots within each replication were placed in random positions on greenhouse benches. Test plants were fertilized as they were watered with approximately 200 ppm of N (as water soluble 20-20-20 fertilizer) which was metered into the water lines with a fertilizer injector. Daytime temperatures was 23-30° C. and night time temperature was 18-25° C. The test plants were supplemented with artificial lighting. The lights were activated whenever the natural light intensity dropped below the programmed threshold. Day length was maintained for approximately 14 hours.
The test was evaluated approximately 12 days after treatment. […]

sugar beet = test: Test B pre/postemergence sugar beet; format: in vivo, Beta vulgaris
Method in brief: (§1)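 Herbicidal effect was estimated by eye on a ten-point control scale after plants spent twelve to sixteen days in a greenhouse following soil or foliar treatment. Foliar sprays targeted plants at one to four leaves; all doses were formulated in a non-phytotoxic solvent with surfactant.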

soybean = test: Test B pre/postemergence soybean; format: in vivo, Glycine max
Method in brief: as §1

wheat = test: Test B pre/postemergence wheat; format: in vivo, Triticum aestivum
Method in brief: as §1

corn = test: Test B pre/postemergence corn; format: in vivo, Zea mays
Method in brief: as §1

purple nutsedge = test: Test B pre/postemergence purple nutsedge; format: in vivo, Cyperus rotundus
Method in brief: as §1

giant foxtail = test: Test B pre/postemergence giant foxtail; format: in vivo, Setaria faberii
Method in brief: as §1

cocklebur = test: Test B pre/postemergence cocklebur; format: in vivo, Xanthium strumarium
Method in brief: as §1

duck salad = test: Test B flood test duck salad; format: in vivo, Heteranthera limosa
Method in brief: (§2)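 Read-out is a visual response score from 0 (no effect) to 10 (complete control), assigned by comparison with untreated controls. Treatment was applied at the 2-leaf stage, and plants stayed in the greenhouse for twelve to sixteen days before scoring.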

crabgrass = test: Test B pre/postemergence crabgrass; format: in vivo, Digitaria sanguinalis
Method in brief: as §1

blackgrass = test: Test B pre/postemergence blackgrass; format: in vivo, Alopecurus myosuroides
Method in brief: as §1

pigweed = test: Test B pre/postemergence pigweed; format: in vivo, Amaranthus retroflexus
Method in brief: as §1

bamyardgrass = test: Test B flood test barnyardgrass; format: in vivo, Echinochloa crus-galli
Method in brief: as §2

smallflower flatsedge = test: Test B flood test smallflower flatsedge; format: in vivo, Cyperus difformis
Method in brief: as §2

surinam grass = test: Test B pre/postemergence surinam grass; format: in vivo, Brachiaria decumbens
Method in brief: as §1

bedstraw = test: Test B pre/postemergence bedstraw; format: in vivo, Galium aparine
Method in brief: as §1

morningglory = test: Test B pre/postemergence morningglory; format: in vivo, Ipomoea hederacea
Method in brief: as §1

wild oat = test: Test B pre/postemergence wild oat; format: in vivo, Avena fatua
Method in brief: as §1

velvetleaf = test: Test B pre/postemergence velvetleaf; format: in vivo, Abutilon theophrasti
Method in brief: as §1

rape = test: Test B pre/postemergence rape; format: in vivo, Brassica napus
Method in brief: as §1

rice = test: Test B flood test rice; format: in vivo, Oryza sativa
Method in brief: as §2

[2] = Preemergence, Rate 62 g/ha, scale of 0 to 10 where 0 is no effect and 10 is complete control
[3] = Preemergence, Rate 250 g/ha, scale of 0 to 10 where 0 is no effect and 10 is complete control
[4] = Preemergence, Rate 500 g/ha, scale of 0 to 10 where 0 is no effect and 10 is complete control
[5] = Rate 125 g/ha, Preemergence, scale of 0 to 10 where 0 is no effect and 10 is complete control
[6] = Rate 500 g/ha, Postemergence, scale 0 to 10, 0 no effect, 10 complete control
[7] = Rate 62 g/ha, Postemergence, scale of 0 to 10 where 0 is no effect and 10 is complete control
[8] = Rate 125 g/ha, Postemergence, scale 0 to 10
[9] = Rate 62 g/ha, headed Pre-emergence (flood test species), scale 0 to 10 (0 no effect, 10 complete control)
[10] = Rate 125 g/ha, Pre-emergence, flood test species, scale 0 to 10 where 0 is no effect and 10 is complete control
[11] = Rate 250 g/ha, Pre-emergence, flood-test species, scale 0 to 10, 0 is no effect, 10 is complete control
[12] = Rate 500 g/ha, Pre-emergence, flood test species, scale 0 to 10 (0 no effect, 10 complete control)

CC1COc2ccccc2N1C(=O)C(Cl)Cl (stereo not drawn) [benoxacor]
Safening of Compound 113 on corn [1]: functioned very effectively as safeners

COC(=O)CCCn1c(=O)on(C(=O)N(c2ccc(F)cc2)C(C)C)c1=O [Compound 266]
Sugarbeets plant response rating (sugar beet; [2]): 0 | Sugarbeets plant response rating (sugar beet; [3]): 7 | Plant response rating, Sugarbeets (sugar beet; [4]): 7 | Sugarbeets plant response rating (sugar beet; [5]): 5 | Sugarbeets plant response rating (sugar beet; [6]): 7 | Soybean plant response rating (soybean; [2]): 0 | Soybean plant response rating (soybean; [3]): 0 | Plant response rating, Soybean (soybean; [4]): 0 | Soybean plant response rating (soybean; [5]): 0 | Soybean plant response rating (soybean; [6]): 8 | Wheat plant response rating (wheat; [2]): 0 | Wheat plant response rating (wheat; [3]): 4 | Plant response rating, Wheat (wheat; [4]): 6 | Wheat plant response rating (wheat; [5]): 0 | Wheat plant response rating (wheat; [6]): 6 | Corn plant response rating (corn; [2]): 0 | Corn plant response rating (corn; [3]): 0 | Plant response rating, Corn (corn; [4]): 0 | Corn plant response rating (corn; [7]): 0 | Corn plant response rating (corn; [8]): 0 | Corn plant response rating (corn; [5]): 0 | Plant response rating (0 to 10; 0 is no effect, 10 is complete control), Corn (corn; Rate 250 g/ha, Postemergence): 0 | Corn plant response rating (corn; [6]): 0 | Nutsedge plant response rating (purple nutsedge; [3]): 0 | Plant response rating, Nutsedge (purple nutsedge; [4]): 0 | Nutsedge plant response rating (purple nutsedge; [5]): 0 | Plant response rating (0 to 10; 0 is no effect, 10 is complete control), Nutsedge (purple nutsedge; Rate 250 g/ha, Postemergence): 0 | Nutsedge plant response rating (purple nutsedge; [6]): 3 | Giant foxtail plant response rating (giant foxtail; [2]): 0 | Giant foxtail plant response rating (giant foxtail; [3]): 6 | Plant response rating, Giant foxtail (giant foxtail; [4]): 8 | Giant foxtail plant response rating (giant foxtail; [5]): 4 | Plant response rating (0 to 10; 0 is no effect, 10 is complete control), Giant foxtail (giant foxtail; Rate 250 g/ha, Postemergence): 5 | Giant foxtail plant response rating (giant foxtail; [6]): 7 | Cocklebur plant response rating (cocklebur; [2]): 0 | Cocklebur plant response rating (cocklebur; [3]): 0 | Plant response rating, Cocklebur (cocklebur; [4]): 0 | Cocklebur plant response rating (cocklebur; [7]): 0 | Cocklebur plant response rating (cocklebur; [8]): 0 | Cocklebur plant response rating (cocklebur; [5]): 0 | Plant response rating (0 to 10; 0 is no effect, 10 is complete control), Cocklebur (cocklebur; Rate 250 g/ha, Postemergence): 2 | Cocklebur plant response rating (cocklebur; [6]): 2 | Ducksalad plant response rating (duck salad; [9]): 0 | Ducksalad plant response rating (duck salad; [10]): 0 | Ducksalad plant response rating (duck salad; [11]): 0 | Ducksalad plant response rating (duck salad; [12]): 0 | Crabgrass plant response rating (crabgrass; [2]): 0 | Crabgrass plant response rating (crabgrass; [3]): 5 | Plant response rating, Crabgrass (crabgrass; [4]): 6 | Crabgrass plant response rating (crabgrass; [5]): 1 | Plant response rating (0 to 10; 0 is no effect, 10 is complete control), Crabgrass (crabgrass; Rate 250 g/ha, Postemergence): 3 | Crabgrass plant response rating (crabgrass; [6]): 5 | Blackgrass plant response rating (blackgrass; [2]): 8 | Blackgrass plant response rating (blackgrass; [3]): 9 | Plant response rating, Blackgrass (blackgrass; [4]): 9 | Blackgrass plant response rating (blackgrass; [7]): 3 | Blackgrass plant response rating (blackgrass; [8]): 5 | Blackgrass plant response rating (blackgrass; [5]): 8 | Plant response rating (0 to 10; 0 is no effect, 10 is complete control), Blackgrass (blackgrass; Rate 250 g/ha, Postemergence): 6 | Blackgrass plant response rating (blackgrass; [6]): 8 | Redroot pigweed plant response rating (pigweed; [2]): 0 | Redroot pigweed plant response rating (pigweed; [3]): 6 | Plant response rating, Redroot pigweed (pigweed; [4]): 9 | Redroot pigweed plant response rating (pigweed; [5]): 0 | Plant response rating (0 to 10; 0 is no effect, 10 is complete control), Redroot pigweed (pigweed; Rate 250 g/ha, Postemergence): 5 | Redroot pigweed plant response rating (pigweed; [6]): 7 | Barnyardgrass plant response rating (bamyardgrass; [9]): 0 | Barnyardgrass plant response rating (bamyardgrass; [10]): 0 | Barnyardgrass plant response rating (bamyardgrass; [11]): 0 | Barnyardgrass plant response rating (bamyardgrass; [12]): 0 | S. Flatsedge plant response rating (smallflower flatsedge; [9]): 0 | S. Flatsedge plant response rating (smallflower flatsedge; [10]): 0 | S. Flatsedge plant response rating (smallflower flatsedge; [11]): 0 | S. Flatsedge plant response rating (smallflower flatsedge; [12]): 0 | B. signalgrass plant response rating (surinam grass; [2]): 0 | B. signalgrass plant response rating (surinam grass; [3]): 0 | Plant response rating, B. signalgrass (surinam grass; [4]): 7 | B. signalgrass plant response rating (surinam grass; [7]): 0 | B. signalgrass plant response rating (surinam grass; Rate 125 g/ha, Postemergence, scale 0 (no effect) to 10 (complete control)): 0 | B. signalgrass plant response rating (surinam grass; [5]): 0 | Plant response rating (0 to 10; 0 is no effect, 10 is complete control), B. signalgrass (surinam grass; Rate 250 g/ha, Postemergence): 0 | B. signalgrass plant response rating (surinam grass; [6]): 2 | Bedstraw plant response rating (bedstraw; [2]): 0 | Bedstraw plant response rating (bedstraw; [3]): 8 | Plant response rating, Bedstraw (bedstraw; [4]): 9 | Bedstraw plant response rating (bedstraw; [7]): 0 | Bedstraw plant response rating (bedstraw; [8]): 0 | Bedstraw plant response rating (bedstraw; [5]): 3 | Plant response rating (0 to 10; 0 is no effect, 10 is complete control), Bedstraw (bedstraw; Rate 250 g/ha, Postemergence): 5 | Bedstraw plant response rating (bedstraw; [6]): 6 | Morningglory plant response rating (morningglory; [2]): 0 | Morningglory plant response rating (morningglory; [3]): 0 | Plant response rating, Morningglory (morningglory; [4]): 1 | Morningglory plant response rating (morningglory; [5]): 0 | Plant response rating (0 to 10; 0 is no effect, 10 is complete control), Morningglory (morningglory; Rate 250 g/ha, Postemergence): 5 | Morningglory plant response rating (morningglory; [6]): 8 | Wild oats plant response rating (wild oat; [2]): 0 | Wild oats plant response rating (wild oat; [3]): 5 | Plant response rating, Wild oats (wild oat; [4]): 7 | Wild oats plant response rating (wild oat; [5]): 2 | Wild oats plant response rating (wild oat; [6]): 2 | Velvetleaf plant response rating (velvetleaf; [2]): 0 | Velvetleaf plant response rating (velvetleaf; [3]): 0 | Plant response rating, Velvetleaf (velvetleaf; [4]): 4 | Velvetleaf plant response rating (velvetleaf; [5]): 0 | Velvetleaf plant response rating (velvetleaf; [6]): 5 | Rape plant response rating (rape; [2]): 0 | Rape plant response rating (rape; [3]): 5 | Plant response rating, Rape (rape; [4]): 5 | Rape plant response rating (rape; [5]): 0 | Plant response rating (0 to 10; 0 is no effect, 10 is complete control), Rape (rape; Rate 250 g/ha, Postemergence): 6 | Rape plant response rating (rape; [6]): 7 | Rice plant response rating (rice; [9]): 0 | Rice plant response rating (rice; [10]): 0 | Rice plant response rating (rice; [11]): 0 | Rice plant response rating (rice; [12]): 0
